Experimental data reported in PMC7144182, “Synthesis, biological evaluation and molecular modelling of 2,4-disubstituted-5-(6-alkylpyridin-2-yl)-1H-imidazoles as ALK5 inhibitors” (Journal of Enzyme Inhibition and Medicinal Chemistry, 2020).
Values joined by “and” are separate entries in the source; they are usually repeats but may differ in a detail not shown here. Identical values can stand only once.

Columns and labels:
[1] = target: T1, purified human ALK5 kinase domain (Homo sapiens, UniProt P36897); test: ALK5 kinase assay (33PanQinase, casein as substrate); type: biochemical; conditions: for IC50: casein substrate, 1 μM ATP, singlicate (11e: mean of triplicates); for fold less potent than the corresponding 6-methylpyridyl analogue / fold more inhibiting than the respective methylene linker analogue: vs 11a; for fold less potent than the corresponding 6-methylpyridyl analogue: 11e, 16a, 16e respectively; for fold more inhibiting than the corresponding m-CONH2 analogues 16e and 16f: ethylene linker series; for fold more inhibiting than the respective methylene linker analogue: 11b, 11c, 11g respectively
T1 construct: using the purified human ALK5 kinase domain produced in Sf9 insect cells; host or cells: Sf9 insect cells
T1 sequence (P36897 205-495 limits assumed): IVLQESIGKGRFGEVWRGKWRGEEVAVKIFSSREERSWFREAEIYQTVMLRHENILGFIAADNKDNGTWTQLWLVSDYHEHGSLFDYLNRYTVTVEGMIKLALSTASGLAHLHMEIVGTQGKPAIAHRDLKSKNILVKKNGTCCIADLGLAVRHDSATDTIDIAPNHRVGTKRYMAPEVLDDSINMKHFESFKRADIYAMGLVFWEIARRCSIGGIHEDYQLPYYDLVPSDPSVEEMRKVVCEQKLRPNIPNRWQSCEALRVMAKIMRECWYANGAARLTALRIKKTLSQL
Method: To evaluate whether these potential inhibitors 7a–c, 11a–h, and 16a–h could inhibit ALK5, a kinase assay was performed using the purified human ALK5 kinase domain produced in Sf9 insect cells and casein as a substrate (Table 1).

[2] = test system: TGF-β1-induced luciferase reporter activity, HaCaT (3TP-luc) stable cells; test: Cell-based p3TP-luciferase reporter assay; conditions: for p3TP-luciferase activity (% control): 0.1 μM inhibitor, TGF-β1 2 ng/mL, 24 h, mean ± SD of three independent experiments; for % inhibition in luciferase reporter assay: 0.1 µM inhibitor
Method: To establish HaCaT (3TP-luc) stable cells, cells were seeded on six-well plates. Cells were allowed to adhere overnight and then transfected with the p3TP-luc (neo) expression plasmid using PEI reagent (Sigma Aldrich). Transfected cells were cultured for four weeks in the presence of G418 (500 µg/mL). Several single clones were isolated and measured luciferase activity. The clone showing response to TGF-β1 treatment was used for reporter assay. HaCaT (3TP-luc) stable cells were seeded at 2.5 × 10^4 cells/well in 96-well plate and were allowed to adhere overnight. Cells were concomitantly treated with TGF-β1 (2 ng/mL) and indicated concentrations of ALK5 inhibitors in 0.2% FBS medium and incubated for 24 h at 37 °C in 5% CO2. Cell lysates were prepared using Luciferase Assay System (Promega) according to the manufacturer’s instruction, and luminescence was measured by a luminometer, Micro Lumat Plus (Berthold, Germany).

Caco-2 cells = test: Caco-2 cell permeability assay; type: in vitro ADME; conditions: 100 µM, AP to BL, 2 h; mean ± SD of quadruplicates
Method: Caco-2 cells were seeded in Transwell® polycarbonate filter at a density of 8 × 10^4 cells/filter and cultured for 21 days. Culture medium was removed from both apical (AP) and basolateral (BL) chambers of transwell, and the wells were rinsed three times with PBS. AP buffer (HBSS, pH 6.5) containing 10 mM MES and BL buffer (HBSS, pH 7.4) containing 10 mM HEPES were loaded in AP (500 µL) and BL (1500 µL) chambers, respectively, followed by incubation for 30 min at 37 °C. Then, test compound (100 µM) was added to the AP side and incubated for 2 h at 37 °C. After the incubation, BL buffer was collected and analysed using an UV spectrophotometer at a maximum wavelength (wavelength 225–357 nm).
To estimate oral absorption of target compounds, their permeability in a Caco-2 monolayer was evaluated at a concentration of 100 µM (Table 1).

SMILES	IC50 [1] [nM]	fold less potent than the corresponding 6-methylpyridyl analogue ([1]; kinase assay)	p3TP-luciferase activity (% control) [2] [% control]	Caco-2 permeability (%) (Caco-2 cells)	fold more potent than the benzo[1,3]dioxol-5-yl analogue ([1]; 11a vs 7a, 16a vs 7b, kinase assay) [fold]	fold more inhibiting than the corresponding m-CONH2 analogues 16e and 16f [1] [fold]	fold more inhibiting than the respective methylene linker analogue [1] [fold]	% inhibition in luciferase reporter assay [2] [% inhibition]
CC(C)c1cccc(-c2[nH]c(Cc3cccc(C(N)=O)c3)nc2-c2ccc3nccnc3c2)n1 [Compound 11g, 3-((5-(6-Isopropylpyridin-2-yl)-4-(quinoxalin-6-yl)-1H-imidazol-2-yl)methyl)benzamide]	1250	13–35 fold	69 ± 6.7	34 ± 15.6%				
Cc1cccc(-c2[nH]c(CCc3ccc(C(N)=O)cc3)nc2-c2ccc3nccnc3c2)n1 [Compound 16a, 4-(2-(5-(6-Methylpyridin-2-yl)-4-(quinoxalin-6-yl)-1H-imidazol-2-yl)ethyl)benzamide]	30		15 ± 8.2	45 ± 5.3%	3.1	1.6	2.9	85
CCc1cccc(-c2[nH]c(CCc3ccc(C(N)=O)cc3)nc2-c2ccc3nccnc3c2)n1 [Compound 16b, 4-(2-(5-(6-Ethylpyridin-2-yl)-4-(quinoxalin-6-yl)-1H-imidazol-2-yl)ethyl)benzamide]	41	1.4 fold	16 ± 8.4	25 ± 3.7%		1.6	2.7	84
CC(C)c1cccc(-c2[nH]c(CCc3ccc(C(N)=O)cc3)nc2-c2ccc3nccnc3c2)n1 [Compound 16c, 4-(2-(5-(6-Isopropylpyridin-2-yl)-4-(quinoxalin-6-yl)-1H-imidazol-2-yl)ethyl)benzamide]	653	13–35 fold	85 ± 38.9	23 ± 3.1%			3.4	
CCCCc1cccc(-c2[nH]c(CCc3ccc(C(N)=O)cc3)nc2-c2ccc3nccnc3c2)n1 [Compound 16d, 4-(2-(5-(6-n-Butylpyridin-2-yl)-4-(quinoxalin-6-yl)-1H-imidazol-2-yl)ethyl)benzamide]	2380		76 ± 5.7	24 ± 1.9%				
Cc1cccc(-c2[nH]c(CCc3cccc(C(N)=O)c3)nc2-c2ccc3nccnc3c2)n1 [Compound 16e, 3-(2-(5-(6-Methylpyridin-2-yl)-4-(quinoxalin-6-yl)-1H-imidazol-2-yl)ethyl)benzamide]	47		7 ± 0.7	21 ± 9.5%				93
CCc1cccc(-c2[nH]c(CCc3cccc(C(N)=O)c3)nc2-c2ccc3nccnc3c2)n1 [Compound 16f, 3-(2-(5-(6-Ethylpyridin-2-yl)-4-(quinoxalin-6-yl)-1H-imidazol-2-yl)ethyl)benzamide]	66	1.4 fold	56 ± 14.6	6% and 6 ± 4.1%				
CC(C)c1cccc(-c2[nH]c(CCc3cccc(C(N)=O)c3)nc2-c2ccc3nccnc3c2)n1 [Compound 16g, 3-(2-(5-(6-Isopropylpyridin-2-yl)-4-(quinoxalin-6-yl)-1H-imidazol-2-yl)ethyl)benzamide]	593	13–35 fold	48 ± 41.8	0%			2.1	
CCCCc1cccc(-c2[nH]c(CCc3cccc(C(N)=O)c3)nc2-c2ccc3nccnc3c2)n1 [Compound 16h, 3-(2-(5-(6-n-Butylpyridin-2-yl)-4-(quinoxalin-6-yl)-1H-imidazol-2-yl)ethyl)benzamide]	2880		92 ± 10.4	0%				
